This series deals with Phospholipidosis. Put plainly: Literature-mined public compounds from Kruhlak et al phospholipidosis modelling dataset.

`CC[C@H]1OC(=O)[C@H](C)[C@@H](O[C@H]2C[C@@](C)(OC)[C@@H](O)[C@H](C)O2)[C@H](C)[C@@H](O[C@@H]2O[C@H](C)C[C@H](N(C)C)[C@H]2O)[C@](C)(O)C[C@@H](C)CN(C)[C@H](C)[C@@H](O)[C@]1(C)O` [AZITHROMYCIN]: the Phospholipidosis entry is “Positive: weak inducer based on presence of foamy macrophages and cytoplasmic vacuolations”.

`CCC1(CC)C(=O)NC(=O)NC1=O` [BARBITAL]: the Phospholipidosis entry is “Negative: based on the absence of positive reported data from WMDD”.

For the molecule `NC[C@H]1O[C@H](O[C@H]2[C@H](O)[C@@H](O[C@H]3O[C@H](CO)[C@@H](O)[C@H](N)[C@H]3O)[C@H](N)C[C@@H]2N)[C@H](N)[C@@H](O)[C@@H]1O` [BEKANAMYCIN], the Phospholipidosis entry is “Negative: based on the absence of positive reported data from WMDD”.

In the case of `NS(=O)(=O)c1cc2c(cc1C(F)(F)F)NC(Cc1ccccc1)NS2(=O)=O` (centres undefined) [BENDROFLUMETHIAZIDE], the Phospholipidosis result is given as “Negative: based on the absence of positive reported data from WMDD”.

With `CC(=O)Nc1ccc(OC(=O)c2ccccc2OC(C)=O)cc1` [BENORILATE], the Phospholipidosis result was “Negative: based on the absence of positive reported data from WMDD”.

With `NC(=O)c1ccccc1` [BENZAMIDE], the Phospholipidosis entry was “Positive: weak inducer based on presence of foamy macrophages and cytoplasmic vacuolations”.

Regarding `CCN(CC)C(=O)C1CN2CCc3cc(OC)c(OC)cc3C2CC1OC(C)=O` (centres undefined) [BENZQUINAMIDE], the Phospholipidosis result is given as “Negative: based on the absence of positive reported data from WMDD”.

On to `CN1[C@@H]2CC[C@H]1C[C@@H](OC(c1ccccc1)c1ccccc1)C2` [BENZTROPINE], for which the Phospholipidosis result is reported as “Negative: based on the absence of positive reported data from WMDD”.

For `OCc1ccccc1` [BENZYL ALCOHOL], the Phospholipidosis entry is “Negative: based on the absence of positive reported data from WMDD”.

`C[N+](C)(CCOc1ccccc1)Cc1ccccc1.O=C([O-])c1cc2ccccc2cc1O` [BEPHENIUM HYDROXYNAPHTHOATE]: the Phospholipidosis result is on record as “Negative: based on the absence of positive reported data from WMDD”.

Take `CC(C)COCC(CN(Cc1ccccc1)c1ccccc1)N1CCCC1` (centres undefined) [BEPRIDIL]: the Phospholipidosis result is listed as “Negative: based on the absence of positive reported data from WMDD”.

For the molecule `CC1=C(/C=C/C(C)=C/C=C/C(C)=C/C=C/C=C(C)/C=C/C=C(C)/C=C/C2=C(C)CCCC2(C)C)C(C)(C)CCC1` [BETA CAROTENE], the Phospholipidosis entry is given as “Negative: based on the absence of positive reported data from WMDD”.

On to `C[N+](C)(C)CC(=O)O` [BETAINE], for which the Phospholipidosis entry is reported as “Negative: based on the absence of positive reported data from WMDD”.

For `CC(=O)OCC(=O)[C@@]1(O)[C@@H](C)C[C@H]2[C@@H]3CCC4=CC(=O)C=C[C@]4(C)[C@@]3(F)[C@@H](O)C[C@@]21C` [BETAMETHASONE ACETATE], the Phospholipidosis result is recorded as “Negative: based on the absence of positive reported data from WMDD”.

Consider `CC(=O)OCC(=O)[C@@]1(OC(=O)C(C)C)[C@@H](C)C[C@H]2[C@@H]3CCC4=CC(=O)C=C[C@]4(C)[C@@]3(F)[C@@H](O)C[C@@]21C` [BETAMETHASONE ACIBUTATE], for which the Phospholipidosis entry was “Negative: based on the absence of positive reported data from WMDD”.

For the molecule `CC(C)NCC(O)COc1ccc(CCOCC2CC2)cc1` (centres undefined) [BETAXOLOL], the Phospholipidosis result is given as “Negative: based on the absence of positive reported data from WMDD”.

As to `C/N=C(\NC)NCc1ccccc1` [BETHANIDINE], the Phospholipidosis result is reported as “Negative: based on the absence of positive reported data from WMDD”.

As to `C=CC1=C(C)/C(=C/c2[nH]c(Cc3[nH]c(/C=C4\NC(=O)C(C)=C4C=C)c(C)c3CCC(=O)O)c(CCC(=O)O)c2C)NC1=O` [BILIRUBIN], the Phospholipidosis result was “Positive: strong inducer confirmed by electron microscopy”.

Take `CC(=O)Oc1ccc(C(c2ccc(OC(C)=O)cc2)c2ccccn2)cc1` [BISACODYL]: the Phospholipidosis result is on record as “Negative: based on the absence of positive reported data from WMDD”.

The values above are taken from ChEMBL document CHEMBL1697821, “Development of a phospholipidosis database and predictive quantitative structure-activity relationship (QSAR) models” (Toxicol Mech Methods, 2008).
